# Reference: PubChem BioAssay (NCI)
#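 Where inhibition never reached the appropriate level, the endpoint shown equals the highest concentration tested. Otherwise, values were interpolated linearly from a five-concentration, 48-hour dose response in 96-well plates. TGI denotes the concentration required for complete inhibition of growth.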
# What was measured:
# Assay in all cases: NCI anticancer screen, dose series, 48 h
# [1] = tested on: SNB-19 CNS
# [2] = tested on: SR leukemia
# [3] = tested on: 786-0 renal
# [4] = tested on: UACC-62 melanoma
# [5] = tested on: HS 578T breast
# [6] = tested on: SF-268 CNS
# [7] = tested on: MDA-MB-435
# [8] = tested on: HCC-2998 colon
# [9] = tested on: SW-620 colon
# [10] = tested on: UACC-257 melanoma
# [11] = tested on: NCI-H23 lung
# [12] = tested on: MOLT-4 leukemia
# [13] = tested on: DU-145 prostate
# [14] = tested on: MDA-N
# [15] = tested on: EKVX NSCLC
# [16] = tested on: OVCAR-4 ovarian
# [17] = tested on: OVCAR-8 ovarian
# [18] = tested on: U251 CNS
# [19] = tested on: OVCAR-3 ovarian
# [20] = tested on: NCI-H226 lung
# [21] = tested on: HCT-15 colon
# [22] = tested on: SK-OV-3 ovarian
# [23] = tested on: IGROV1 ovarian
# [24] = tested on: HOP-92 NSCLC
# [25] = tested on: SK-MEL-2 melanoma
# [26] = tested on: HT29 colon
# [27] = tested on: PC-3 prostate
# [28] = tested on: ACHN renal
# [29] = tested on: SN12C renal
# [30] = tested on: MALME-3M melanoma
# [31] = tested on: UO-31 renal
# [32] = tested on: SF-295 CNS
# [33] = tested on: K-562 leukemia
# [34] = tested on: M14 melanoma
# [35] = tested on: OVCAR-5 ovarian
# [36] = tested on: NCI-H460 lung
# [37] = tested on: NCI/ADR-RES ovarian
# [38] = tested on: SNB-75 CNS
# [39] = tested on: SK-MEL-28 melanoma
# [40] = tested on: HOP-62 NSCLC
# [41] = tested on: HL-60(TB) leukemia
# [42] = tested on: MCF7 breast
# [43] = tested on: LOX IMVI melanoma
# [44] = tested on: TK-10 renal
# [45] = tested on: RPMI-8226 leukemia
# [46] = tested on: RXF 393 renal
# [47] = tested on: CAKI-1 renal
# [48] = tested on: MDA-MB-231 breast
# [49] = tested on: A498 renal
# [50] = tested on: A549 NSCLC
# [51] = tested on: KM12 colon
# [52] = tested on: BT-549 breast
# [53] = tested on: SK-MEL-5 melanoma
# [54] = tested on: CCRF-CEM leukemia
# [55] = tested on: T-47D breast
# [56] = tested on: SF-539 CNS
# [57] = tested on: NCI-H522 lung
# [58] = tested on: COLO 205 colon
# [59] = tested on: HCT-116 colon
structure (smiles),measurement,setting,value
O=C(O)CCC(=O)C(=O)O,TGI,[1],> 100 µM
same,TGI,[2],> 100 µM
same,TGI,[3],> 100 µM
same,TGI,[4],> 100 µM
same,TGI,[5],> 100 µM
same,TGI,[6],> 100 µM
same,TGI,[7],> 100 µM
same,TGI,[8],> 100 µM
same,TGI,[9],> 100 µM
same,TGI,[10],> 100 µM
same,TGI,[11],> 100 µM
same,TGI,[12],> 100 µM
same,TGI,[13],> 100 µM
same,TGI,[14],> 100 µM
same,TGI,[15],> 100 µM
same,TGI,[16],> 100 µM
same,TGI,[17],> 100 µM
same,TGI,[18],> 100 µM
same,TGI,[19],> 100 µM
same,TGI,[20],> 100 µM
same,TGI,[21],> 100 µM
same,TGI,[22],> 100 µM
same,TGI,[23],> 100 µM
same,TGI,[24],> 100 µM
same,TGI,[25],> 100 µM
same,TGI,[26],> 100 µM
same,TGI,[27],> 100 µM
same,TGI,[28],> 100 µM
same,TGI,[29],> 100 µM
same,TGI,[30],> 100 µM
same,TGI,[31],> 100 µM
same,TGI,[32],> 100 µM
same,TGI,[33],> 100 µM
same,TGI,[34],> 100 µM
same,TGI,[35],> 100 µM
same,TGI,[36],> 100 µM
same,TGI,[37],> 100 µM
same,TGI,[38],> 100 µM
same,TGI,[39],> 100 µM
same,TGI,[40],> 100 µM
same,TGI,[41],> 100 µM
same,TGI,[42],> 100 µM
same,TGI,[43],> 100 µM
same,TGI,[44],> 100 µM
same,TGI,[45],> 100 µM
same,TGI,[46],> 100 µM
same,TGI,[47],> 100 µM
same,TGI,[48],> 100 µM
same,TGI,[49],> 100 µM
same,TGI,[50],> 100 µM
same,TGI,[51],> 100 µM
same,TGI,[52],> 100 µM
same,TGI,[53],> 100 µM
same,TGI,[54],> 100 µM
same,TGI,[55],> 100 µM
same,TGI,[56],> 100 µM
same,TGI,[57],> 100 µM
same,TGI,[58],> 100 µM
same,TGI,[59],> 100 µM
COc1ccc(C2CC(c3ccc4ccccc4c3O)=NN2)cc1OC (centres undefined),TGI,[2],46.3 µM
same,TGI,[3],> 100 µM
same,TGI,[4],> 100 µM
same,TGI,[5],> 100 µM
same,TGI,[6],> 100 µM
same,TGI,[7],> 100 µM
same,TGI,[8],> 100 µM
same,TGI,[9],> 100 µM
same,TGI,[10],> 100 µM
same,TGI,[11],> 100 µM
same,TGI,[12],65.4 µM
same,TGI,[13],> 100 µM
same,TGI,[14],60.8 µM
same,TGI,[16],> 100 µM
same,TGI,[17],> 100 µM
same,TGI,[18],> 100 µM
same,TGI,[19],> 100 µM
same,TGI,[20],> 100 µM
same,TGI,[21],> 100 µM
same,TGI,[22],> 100 µM
same,TGI,[23],> 100 µM
same,TGI,[24],> 100 µM
same,TGI,[25],> 100 µM
same,TGI,[26],> 100 µM
same,TGI,[27],> 100 µM
same,TGI,[28],> 100 µM
same,TGI,[29],> 100 µM
same,TGI,[30],> 100 µM
same,TGI,[31],> 100 µM
same,TGI,[32],> 100 µM
same,TGI,[33],52.1 µM
same,TGI,[34],> 100 µM
same,TGI,[35],> 100 µM
same,TGI,[36],> 100 µM
same,TGI,[37],> 100 µM
same,TGI,[38],> 100 µM
same,TGI,[39],> 100 µM
same,TGI,[40],> 100 µM
same,TGI,[42],> 100 µM
same,TGI,[44],> 100 µM
same,TGI,[45],> 100 µM
same,TGI,[46],> 100 µM
same,TGI,[47],> 100 µM
same,TGI,[48],96 µM
same,TGI,[49],> 100 µM
same,TGI,[50],> 100 µM
same,TGI,[51],> 100 µM
same,TGI,[52],74 µM
same,TGI,[53],> 100 µM
same,TGI,[54],42.6 µM
same,TGI,[55],> 100 µM
same,TGI,[56],> 100 µM
same,TGI,[57],> 100 µM
same,TGI,[58],> 100 µM
same,TGI,[59],> 100 µM
